# Where two headings read alike, the source gives them in different places.
# T1: trypsin (Bos taurus, UniProt P00760)
# T1 sequence (P00760 24-246): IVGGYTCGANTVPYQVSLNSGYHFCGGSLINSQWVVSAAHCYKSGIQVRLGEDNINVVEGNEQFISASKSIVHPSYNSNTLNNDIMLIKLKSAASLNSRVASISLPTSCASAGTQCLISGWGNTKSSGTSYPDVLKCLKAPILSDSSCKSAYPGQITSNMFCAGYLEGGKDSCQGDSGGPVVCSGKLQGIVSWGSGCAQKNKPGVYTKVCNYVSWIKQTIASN
# T2: trypsin from bovine pancreas (Bos taurus, UniProt P00760)
# T2 sequence (P00760 24-246): T1 sequence (P00760 24-246)
# B1: SBTI: trypsin inhibitor from Glycine max (soybean) (Catalog No. 93620, ˜10,000 units per mg, Sigma-Aldrich) (protein, UniProt P01070 25-205, looked up)
# Trypsin inhibitor A: DFVLDNEGNPLENGGTYYILSDITAFGGIRAAPTGNERCPLTVVQSRNELDKGIGTIISSPYRIRFIAEGHPLSLKFDSFAVIMLCVGIPTEWSVVEDLPEGPAVKIGENKDAMDGWFRLERVSDDEFNNYKLVFCPQQAEDDKCGDIGISIDHDDGTRRLVVSKNKPLVVQFQKLDKESL
# Key:
# [1] = In vitro stability of Compound KC-3 to household chemicals and enzyme preparations; type: physicochemical; conditions: vodka, baking soda, WINDEX, vinegar (RT or 80° C.), GNC Super Digestive, tenderizer, subtilisn (RT); 1 or 24 hr
# Method: Samples were incubated as described. Aliquots were removed at 1 hr and 24 hr and stabilized by adding each to a solution of 50% or 100% of 85% phosphoric acid solution to achieve a final pH of less than or equal to pH 4. The stabilized aliquots were then diluted 4- to 6-fold with water, vortex-mixed and applied to HPLC.
# [2] = male, Sprague Dawley, rat, in vivo
# [3] = target: human μ-opioid receptor (Homo sapiens, UniProt P35372); experiment: cell-based; set-up: expressed in transfected cells; host or cells: CHO; conditions: agonist response, cAMP (HTRF); recombinant CHO cells; 37° C., 10 min; three separate experiments
# Method: This Example measures the ability of certain compounds of the present disclosure to effect an agonist response when exposed to recombinant human μ-opioid receptor expressed in CHO cells.
# A. and Uhl, G. R. (1994). […] The control reaction included 1 μM DAMGO. The reaction mixtures were incubated at 37° C. for 10 min, and the reaction product was cyclic AMP (cAMP). The samples were submitted to homogeneous time resolved fluorescence (HTRF®). EC50 values (concentration producing a half-maximal specific response) were determined by non-linear regression fit using the Hillplot software.
# [4] = In vivo tolerability of Compound KC-3 in rats (IV); conditions: rat, Compound KC-3 97 μmol/kg, tolerated
# Method: Male naïve Sprague-Dawley rats, 4 per dose, were used in the study. Rats were weighed, and then placed under a heat lamp for 15-20 minutes to dilate the lateral tail veins. […] Before dosing, rats were placed in Broome restrainers and the drug was introduced into one of the tail veins using a syringe and needle. […] Blood samples were collected 5 minutes post-dose via the saphenous vein. The rats were observed up to 24 hours.
# [5] = target: T1, trypsin; experiment: In vitro trypsin-mediated release of drug from ketone-modified opioid prodrugs KC-3 to KC-6, effect of Compound 109; conditions: bovine, trypsin from bovine pancreas, h Average ± sd
# Source text: (§1) Other reaction and sample treatment conditions were as described above.
# [6] = target: T2, trypsin from bovine pancreas; experiment: as above; conditions: 0.761 mM prodrug, 37° C., no trypsin inhibitor
# Source text: as §1
# [7] = Oral administration of Compound PC-4 and SBTI trypsin inhibitor to rats; conditions: for Cmax (ng/mL HM) / Tmax: HM in rat plasma, PC-4 20 mg/kg
# [8] = target: T2, trypsin from bovine pancreas; experiment: In vitro trypsin conversion of prodrugs to hydromorphone and inhibition by trypsin inhibitor; conditions: with trypsin inhibitor 3,089 uM Compound 109
# Method: The reactions were conducted at 37° C. for 24 hr. Samples were collected at specified time points, transferred into 0.5% formic acid in acetonitrile to stop trypsin activity and stored at less than −70° C. until analysis by LC-MS/MS.
# The results are expressed as half-life of prodrug when exposed to trypsin (i.e., Prodrug trypsin half-life) in hours and rate of formation of HM per unit of trypsin.
# [9] = HM in rat plasma, PO, PC-4 20 mg/kg
# [10] = Pharmacokinetics of Compound KC-6 following PO administration to rats; conditions: rat; PO Compound KC-6
# [11] = male, Sprague Dawley, rat, in vivo; remark: listed apart in the source
# [12] = Pharmacokinetics of Compound KC-5 following PO administration to rats; conditions: rat; PO Compound KC-5
# [13] = rat
# [14] = Oral administration of Compound PC-3 and SBTI trypsin inhibitor to rats; type: in vivo; conditions: rat plasma, PC-3 20 mg/kg with SBTI 500 mg/kg
# Source text: Dosing, sampling and analysis procedures were as described in Example 16.
# [15] = Oral administration of Compound PC-2 and SBTI trypsin inhibitor to rats; type: in vivo, rat; conditions: rat plasma, PC-2 20 mg/kg with SBTI 500 mg/kg
# [16] = target: T1, trypsin; experiment: In vitro IC50 of trypsin inhibitors, modified trypsin assay (Bergmeyer); type: biochemical; conditions: trypsin inhibition
# [17] = Oral administration of Compound PC-1 and SBTI trypsin inhibitor to rats (hydromorphone in blood); conditions: rat blood, PC-1 20 mg/kg with SBTI 10 to 1000 mg/kg
# [18] = pH 8, Pro-drug trypsin half-life, 0.761 mM prodrug, 241 BAEE U trypsin/mL, 37° C., no trypsin inhibitor
# [19] = male, Sprague Dawley, in vivo, iv, 10 mg/kg
# Sequence of human μ-opioid receptor (P35372 whole entry): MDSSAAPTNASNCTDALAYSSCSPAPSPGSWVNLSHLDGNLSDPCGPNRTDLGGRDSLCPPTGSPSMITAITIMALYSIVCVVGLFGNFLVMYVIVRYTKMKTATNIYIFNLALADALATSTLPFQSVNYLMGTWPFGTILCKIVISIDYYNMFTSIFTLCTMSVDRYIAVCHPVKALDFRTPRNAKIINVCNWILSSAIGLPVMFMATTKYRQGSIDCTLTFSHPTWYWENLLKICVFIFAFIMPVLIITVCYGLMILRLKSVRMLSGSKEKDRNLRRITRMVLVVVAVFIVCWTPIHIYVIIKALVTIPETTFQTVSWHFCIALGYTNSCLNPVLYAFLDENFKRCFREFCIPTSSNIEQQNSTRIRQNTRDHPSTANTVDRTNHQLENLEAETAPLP
molecule,measurement,setting,value
"COc1ccc2c3c1O[C@H]1C(OC(=O)N(C)CCNC(=O)[C@H](CCCNC(=N)N)NC(=O)CC(=O)O)=CC[C@@]4(O)[C@@H](C2)N(C)CC[C@]314 [Compound KC-3, N-{(S)-4-guanidino-1-[2-(methyl-[(5R,9R,13S,14S)-4,5a-epoxy-6,7-didehydro-14-hydroxy-3-methoxy-17-methylmorphinan-6-oxy]carbonyl-amino)-ethylcarbamoyl]-butyl}-malonamic acid]",conversion to oxycodone,[1],less than 10%
same,Compound conc. in CSF,[2],34.1 ng/mL
same,Compound conc. in Plasma,[2],"59,225 ng/mL"
same,Plasma/CSF partitioning coefficient,[2],"1,737"
same,EC50,[3],1600 nM
same,time to recover to normal activity,[4],≤ 2 min
same,half-life at 0.761 mM,[5]; [18],8.92 ± 1.91 h
same,half-life at 0.761 mM,"[5]; pH 8, with Compound 109 (trypsin inhibitor), 2 µM, Pro-drug trypsin half-life, with trypsin inhibitor Compound 109 2 uM",43.3 ± 40.6 h
same,"Rate of oxycodone formation, umol/h/BAEE U Average ± sd",[6]; 241 BAEE U trypsin/mL,0.0684 ± 0.0009 umol/h/BAEE U
"CCN(CCNC(=O)[C@H](CCCNC(=N)N)NC(C)=O)C(=O)Oc1ccc2c3c1OC1C(=O)CCC4C(C2)N(C)CCC314 (stereo partly drawn) [Compound PC-4, [2-((S)-2-Acetylamino-5-guanidino-pentanoylamino)-ethyl]-ethyl-carbamic acid hydromorphone ester]",Cmax (ng/mL HM),"[7]; SBTI 0 mg/kg, 7 rats",7.7 ± 2.3 ng/mL
same,Tmax,"[7]; SBTI 0 mg/kg, 7 rats",2.3 h
same,Cmax (ng/mL HM),"[7]; SBTI 500 mg/kg, 4 rats",7.5 ± 2.1 ng/mL
same,Tmax,"[7]; SBTI 500 mg/kg, 4 rats",6.5 h
same,"Rate of HM formation, umols/h/umol trypsin Average ± sd",[8],3.27 ± 1.87 umols/h/umol trypsin
same,Cmax (ng/mL HM),"[9]; Compound 101 0 mg/kg, 7 rats",7.7 ± 2.3 ng/mL
same,Tmax,"[9]; Compound 101 0 mg/kg, 7 rats",2.3 h
same,Cmax (ng/mL HM),"[9]; Compound 101 10 mg/kg, 4 rats",4.8 ± 1.4 ng/mL
same,Tmax,"[9]; Compound 101 10 mg/kg, 4 rats",6.0 h
"COc1ccc2c3c1O[C@H]1C(OC(=O)N(C)C[C@H](NC(=O)[C@H](CCCNC(=N)N)NC(C)=O)C(=O)N(C)CC(=O)O)=CC[C@@]4(O)[C@@H](C2)N(C)CC[C@]314 [Compound KC-6, ({(S)-2-((S)-2-Acetylamino-5-guanidino-pentanoylamino)-3-[(oxycodone-enyloxycarbonyl)-methyl-amino]-propionyl]-methyl-amino)-acetic acid]",oxycodone plasma concentrations compared to administration of oxycodone,[10],suppressed Cmax and AUC and delayed Tmax compared to administration of oxycodone
same,EC50,[3],1800 nM
same,Compound conc. in CSF,[11],74.1 ng/mL
same,Compound conc. in Plasma,[11],"60,400 ng/mL"
same,Plasma/CSF partitioning coefficient,[11],815
same,plasma/CSF partitioning coefficient,[11],815
same,"Rate of oxycodone formation, umol/h/BAEE U Average ± sd",[6]; 241 BAEE U trypsin/mL,0.0118 ± 0.0042 umol/h/BAEE U
same,"Rate of oxycodone formation, umol/h/BAEE U Average ± sd",[6]; 4815 BAEE U trypsin/mL,0.00571 ± 0.0002 umol/h/BAEE U
"COc1ccc2c3c1O[C@H]1C(OC(=O)N(CCCCCC(=O)O)CCNC(=O)[C@H](CCCNC(=N)N)NC(C)=O)=CC[C@@]4(O)[C@@H](C2)N(C)CC[C@]314 [Compound KC-5, 6-{[2-(2-Acetylamino-5-guanidino-pentanoylamino)-ethyl]-[(5R,9R,13S,14S)-4,5a-epoxy-6,7-didehydro-14-hydroxy-3-methoxy-17-methylmorphinan-6-oxy]-1-enyloxycarbonyl-amino}-hexanoic acid]",oxycodone plasma concentrations compared to administration of oxycodone,[12],suppressed Cmax and AUC and delayed Tmax compared to administration of oxycodone
same,plasma/CSF partitioning coefficient,"[13]; male, Sprague Dawley, in vivo","1,508"
same,Compound conc. in CSF,[13]; [19],36.4 ng/mL
same,Compound conc. in Plasma,[13]; [19],"54,900 ng/mL"
same,Plasma/CSF partitioning coefficient,[13]; [19],"1,508"
same,relative plasma/CSF partitioning coefficient of prodrug to oxycodone (fold less CSF penetrant),"[13]; IV, 1,508/4.8",about 316 fold
same,EC50,[3],2000 nM
same,half-life at 0.761 mM,[5]; [18],1.2 ± 0.04 h
same,"Rate of oxycodone formation, umol/h/BAEE U Average ± sd",[6]; 241 BAEE U trypsin/mL,0.135 ± 0.005 umol/h/BAEE U
B1,effect of inhibitor on prodrug's release of hydromorphone,"[7]; rat plasma, PC-4 20 mg/kg with SBTI 500 mg/kg","attenuates Compound PC-4's ability to release hydromorphone, at least with respect to delaying Tmax"
same,effect of inhibitor on prodrug's release of hydromorphone,[14],"attenuates Compound PC-3's ability to release hydromorphone, both with respect to suppressing Cmax and delaying Tmax"
same,effect of inhibitor on prodrug's release of hydromorphone,[15],"attenuates Compound PC-2's ability to release hydromorphone, both with respect to suppressing Cmax and delaying Tmax"
same,IC50,[16]; Table 7 (Example 19),270 nM
same,IC50,[16]; Table 20 (Example 40),270 nM
same,effect of inhibitor on prodrug's release of hydromorphone,[17],attenuates Compound PC-1's ability to release hydromorphone in a dose-dependent manner
